Test results reported in patent US5500428A, “Furyl-substituted purines and adenosine antagonists” (Imperial Chemical Industries PLC, priority 1991, dated 1996).

Target: T1, A2 Adenosine receptor (Rattus norvegicus, UniProt P30543)
T1 construct: membrane preparations derived from the rat phaeochromocytoma cell line PC 12; host or cells: PC 12 rat phaeochromocytoma cells, membranes
Assay: A2 Adenosine receptor affinity test: displacement of [3H]-NECA from PC 12 cell membrane preparations
Format: binding
Protocol: The membrane preparation is obtained as follows: Frozen pellets of PC12 cells are washed twice with ice cold, buffered, physiological saline and the cells recovered by centrifugation (1500 G) at 3° C. The separated cells are then suspended in hypotonic solution (distilled water), allowed to stand on ice for 30 minutes and are then carefully homogenized using a standard high-speed homogeniser with periodic ice-cooling to obtain a fine suspension. […] The mixture is then incubated at 37° C. After 20 minutes, the reaction is terminated by dilution with ice-cold buffer and transfer onto ice. The material obtained containing the cell membranes is recovered by centrifugation and washed by resuspension in buffer and recentrifugation. The pellet produced is then resuspended in ice-cold buffer using a hand-driven homogenizer. The resultant membrane suspension is frozen and stored under liquid nitrogen until required.
After incubation, the samples are rapidly filtered over glass-fibre mats and the filter mats are washed to remove non-receptor-bound radioligand. Receptor-bound radioligand entrapped on the filter mats is then determined by liquid scintillation counting. Filtration and washing are carried out using a conventional vacuum filtration cell harvester. The specific binding (defined as the difference between the total binding and the non-specific binding) in the presence of the particular test compound is determined and compared with the control value.

[1] = read-out: displacement of control binding

T1 sequence (P30543 whole entry): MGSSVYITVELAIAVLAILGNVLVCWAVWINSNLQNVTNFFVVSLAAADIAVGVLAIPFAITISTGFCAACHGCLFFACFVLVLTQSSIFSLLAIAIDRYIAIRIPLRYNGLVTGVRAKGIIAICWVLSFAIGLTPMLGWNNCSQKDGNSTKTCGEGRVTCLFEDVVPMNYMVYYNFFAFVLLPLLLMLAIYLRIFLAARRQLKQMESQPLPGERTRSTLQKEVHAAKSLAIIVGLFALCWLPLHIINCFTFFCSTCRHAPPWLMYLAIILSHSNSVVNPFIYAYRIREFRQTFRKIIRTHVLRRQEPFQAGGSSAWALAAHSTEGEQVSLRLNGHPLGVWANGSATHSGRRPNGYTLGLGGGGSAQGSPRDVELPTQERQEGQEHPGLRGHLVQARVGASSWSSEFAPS

Question: For COc1ccc(CCNc2nc(N)c3nc(-c4ccco4)oc3n2)cc1 [Example 1, 7-amino-2-(2-furyl)-5-[2-(4-methoxyphenyl)ethyl]asino-oxazolo[5,4-d]pyrimidine], which IC50 ([3H]-NECA displacement, PC 12 membranes, inferred from displacement at 10^-5 M and 10^-7 M, read-out: pIC50 (indicated by the % displacement values) (converted)) is on record?
Answer: < 100 nM

Question: And the inhibition at 0.1 µM [1]?
Answer: 59%

Question: And the inhibition at 10 µM [1]?
Answer: 78%
